We go through eight compounds from PubChem BioAssay (NCI).

Molecules are shown by their SMILES. Where “and” joins values, the source holds several entries; their conditions need not be identical. Equal entries are not always repeated.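 Method: 48-hour compound exposure of cells in 96-well plates, five concentrations, linear interpolation of endpoints. GI50: concentration for 50% inhibition of growth. TGI is the concentration that stops growth completely.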

Common to all, as to assay: inhibition of tumour cell growth, NCI panel, 48 h
The test system of experiment [1] is MDA-MB-435.
Experiment [2] relates to A498 renal.
The subject of experiment [3] is U251 CNS.
The test system of experiment [4] is HS 578T breast.
Experiment [5] concerns NCI/ADR-RES ovarian.
Experiment [6] has as its system HT29 colon.
For experiment [7], the system named is SN12C renal.
Experiment [8] relates to UACC-62 melanoma.
The test system of experiment [9] is HOP-62 NSCLC.
Experiment [10] has as its system UO-31 renal.

As to `O=C1c2cccnc2C(=O)c2c1c(C(=O)NCCCN1CCCCC1)c1ccccn21`, the GI50 is 0.403 µM in experiment [1]; 1.54 µM in [2]; 1.42 µM in experiment [3]; 2.59 µM in experiment [4]; 2.08 µM in experiment [5]; 0.391 µM in [6]. In addition, the GI50 in [7] is 0.472 µM; in experiment [8] it was 0.624 µM; in experiment [9], 1.08 µM; in experiment [10] it was 1.42 µM. Also, the TGI in [1] is 1.52 µM; in experiment [2] it was 3.23 µM; in experiment [3], 3.21 µM; in experiment [4], 9.75 µM; in experiment [5] it was 7.37 µM; in experiment [6] it was 2.92 µM. The TGI in experiment [7] came to 1.84 µM; in experiment [8] it was 2.51 µM; in experiment [9], 3.18 µM; in experiment [10], 6.71 µM.

Consider `O=c1[nH]c(=O)n(C2CC(O)C(COP(=O)(OCc3ccc([N+](=O)[O-])o3)N(CCCCCl)CC(O)CO)O2)cc1F` (configuration not stated), for which the GI50 was 1.26 µM in experiment [1]; 0.138 µM in experiment [2]; 0.824 µM in experiment [4]; 0.781 µM in experiment [5]; 1.66 µM in experiment [6]; below 0.0496 µM in [7]. Moreover, the GI50 in experiment [8] was 0.138 µM; in experiment [9] it was 0.412 µM; in [10], 0.174 µM. Further, the TGI in experiment [1] is above 100 µM; in experiment [2] it was 39.1 µM; in [3], above 100 µM; in experiment [4], above 100 µM; in experiment [5], above 100 µM; in experiment [6], above 100 µM. For the same compound, the figures for the TGI in experiment [9] and in experiment [10] were above 26.2 µM and above 100 µM, respectively.

`C=CC(=O)Nc1cccc(Oc2nc(Nc3ccc(N4CCN(C)CC4)cc3)nc3ccsc23)c1`: the GI50 in experiment [1] is 1.71 µM and 1.93 µM; in experiment [2], 3.51 µM and 0.862 µM; in experiment [3], 2.89 µM and 2.97 µM; in experiment [4] it was 6.16 µM and 4.88 µM; in experiment [5], 2.73 µM and 3.3 µM; in experiment [6], 1.91 µM and 2.72 µM. For the same compound, the GI50 in experiment [7] was 1.58 µM and 1.61 µM; in experiment [8], 1.59 µM and 1.74 µM; in [9] it was 3.71 µM and 3.73 µM; in experiment [10], 0.962 µM and 1.11 µM. Moreover, the TGI is 3.69 µM and 4.12 µM in experiment [1]; > 10 µM and 9.65 µM in experiment [2]; > 10 µM and 9.01 µM in [3]; > 10 µM and 41.3 µM in experiment [4]; > 10 µM and 20.1 µM in experiment [5]; 4.05 µM and 5.81 µM in experiment [6]. For the same compound, the TGI was 4.35 µM and 4.61 µM in [7]; 3.17 µM and 3.67 µM in experiment [8]; > 10 µM and 15.7 µM in experiment [9]; 3.69 µM and 3.38 µM in experiment [10].

In the case of `NNC(=O)CS(=O)(=O)Nc1ncccn1`, the TGI in [1], in experiment [2], in experiment [3], in experiment [4], in experiment [5] and in experiment [6] was above 100 µM each time. In addition, the TGI in [7], in [8], in experiment [9] and in experiment [10] was above 100 µM in each case.

`CN1C(=O)N(C)C2C1NN=c1s/c(=C\c3ccc(C(F)(F)F)cc3)c(=O)n12` (configuration not stated): the GI50 in experiment [1] was 0.312 µM; in experiment [2] it was 2 µM; in experiment [3], 0.569 µM; in experiment [4], 2.13 µM; in experiment [5], 0.696 µM; in [6], 0.44 µM. For the same compound, the GI50 in [7] is 3.89 µM; in experiment [8] it was 0.662 µM; in experiment [9] it was 1.31 µM; in experiment [10], 2.21 µM. The TGI was 1.34 µM in [1]; 34.6 µM in experiment [2]; 14.4 µM in experiment [3]; 81.9 µM in experiment [4]; 37.3 µM in [5]; above 100 µM in [6]. Also, the TGI in experiment [7] was above 100 µM; in experiment [8], above 100 µM; in [9], 20.1 µM; in [10], above 100 µM.

For `O=C1/C(=C/c2ccccc2[N+](=O)[O-])Cc2ccccc21`, the GI50 is 3.06 µM in experiment [1]; 2.17 µM in experiment [2]; 2.89 µM in experiment [3]; 3.7 µM in experiment [4]; 3.35 µM in experiment [5]; 0.931 µM in [6]. Also, the GI50 in experiment [7] was 2.54 µM; in experiment [8], 1.64 µM; in experiment [9] it was 3 µM; in experiment [10], 1.21 µM. Besides, the TGI in [1] was 11.8 µM; in experiment [2] it was 5.36 µM; in experiment [3], 10.6 µM; in experiment [4], above 100 µM; in [5], 40.6 µM; in experiment [6], 3.15 µM. In addition, the TGI in [7] was 9.17 µM; in [8], 3.38 µM; in experiment [9], 17.2 µM; in [10], 2.68 µM.

Take `COc1ccc(-c2nc(Nc3cc(C)[nH]n3)c3ccccc3n2)cc1`: the GI50 in experiment [1] was 1.3 µM; in experiment [2], 0.271 µM; in [3], 1.16 µM; in experiment [4] it was 0.678 µM; in [5], 3.25 µM; in experiment [6], 1.19 µM. For the same compound, the GI50 in [7] is 2.01 µM; in [8] it was 2.37 µM; in experiment [9], 1.17 µM; in [10] it was 0.529 µM. Also, the TGI in experiment [1] was above 100 µM; in experiment [2] it was 1.46 µM; in experiment [3], above 100 µM; in experiment [4], 4.6 µM; in [5] it was above 58.1 µM; in experiment [6] it was 5.15 µM. Besides, the TGI in experiment [7] was above 100 µM; in experiment [8] it was above 100 µM; in experiment [9], above 26.2 µM; in [10], 14.9 µM.

As to `COc1cccc(OC(=O)c2ccc(C(F)(F)F)nc2Nc2cc(Cl)ccc2C)c1`, the GI50 is 24.2 µM in experiment [1]; 4.19 µM in [2]; 8.13 µM in [3]; 1.23 µM in experiment [4]; 19.6 µM in experiment [5]; 4.28 µM in experiment [6]. For the same compound, the GI50 was 29.2 µM in experiment [7], 3.3 µM in experiment [8], 15.6 µM in experiment [9] and 5.8 µM in experiment [10]. Also, the TGI in [1] is 58.2 µM; in experiment [2], 20.9 µM; in [3] it was above 100 µM; in [4], 4.79 µM; in experiment [5], above 100 µM; in experiment [6] it was above 100 µM. The TGI in experiment [7] is above 100 µM; in experiment [8], 20 µM; in [9], 36.1 µM; in [10], above 100 µM.
